What was measured:
[1] = tested on: Beet Armyworm (Spodoptera exigua, LAPHEG); experiment: Bioassays on Beet Armyworm (BAW), 128-well diet tray assay; format: in vivo; details: Spodoptera exigua; Beet Armyworm, Table ABC / ABC-DP rating; read-out: BAW rating
Method in brief: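 Larvae at second instar are exposed on dried, compound-treated diet (50 μg/cm^2, delivered in 90:10 acetone-water) in eight replicate wells. After five to seven days at 25° C., 14:10 light-dark, percent mortality in each well is scored and the eight wells averaged.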

[2] = tested on: Cabbage Looper (Trichoplusia ni, TRIPNI); experiment: Bioassays on Cabbage Looper (CL), 128-well diet tray assay; format: in vivo; details: Trichoplusia ni; Cabbage Looper, Table ABC / ABC-DP rating; read-out: CL rating
Method in brief: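 Diet tray, 2nd instar, 1–5 larvae/well; 50 μg/cm^2 compound surface-applied (acetone:water 90:10), dried; 8 wells/treatment; 25° C, 14:10 L:D, 5–7 d; % mortality, mean of 8 wells.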

`O=C(NCC(F)(F)F)c1cc(NC(=O)[C@H]2[C@H](c3ccc(F)c(Cl)c3)C2(Cl)Cl)cc(F)c1Cl` (relative stereo) [F2034, trans-2-Chloro-5-(2,2-dichloro-3-(3-chloro-4-fluorophenyl)cyclopropane-1-carboxamido)-3-fluoro-N-(2,2,2-trifluoroethyl)benzamide] was tested, and the pest or weed control at 50 µg/cm2 [1] was 50 to 100% and the pest or weed control at 50 µg/cm2 [2] was 50 to 100%.

`CCNC(=O)c1cc(NC(=O)[C@H]2[C@H](c3ccc(F)c(Cl)c3)C2(Cl)Cl)cc(Cl)c1C` (relative stereo) [F2041, trans-3-Chloro-5-(2,2-dichloro-3-(3-chloro-4-fluorophenyl)cyclopropane-1-carboxamido)-N-ethyl-2-methylbenzamide] was tested, and the pest or weed control at 50 µg/cm2 [1] was 50 to 100% and the pest or weed control at 50 µg/cm2 [2] was 50 to 100%.

Work on `O=C(NCC(F)(F)F)c1cc(NC(=O)[C@H]2[C@H](c3ccc(F)c(Cl)c3)C2(Cl)Cl)cc(Cl)c1F` (relative stereo) [F2045, trans-3-Chloro-5-(2,2-dichloro-3-(3-chloro-4-fluorophenyl)cyclopropane-1-carboxamido)-2-fluoro-N-(2,2,2-trifluoroethyl)benzamide] yielded a pest or weed control at 50 µg/cm2 [1] of 50 to 100% and a pest or weed control at 50 µg/cm2 [2] of 50 to 100%.

Compound `O=C(NCC(F)(F)C(F)(F)F)c1cc(NC(=O)[C@H]2[C@H](c3ccc(F)c(Cl)c3)C2(Cl)Cl)cc(Cl)c1F` (relative stereo) [F2046, trans-3-Chloro-5-(2,2-dichloro-3-(3-chloro-4-fluorophenyl)cyclopropane-1-carboxamido)-2-fluoro-N-(2,2,3,3,3-pentafluoropropyl)benzamide] has a pest or weed control at 50 µg/cm2 [1] of 50 to 100% and a pest or weed control at 50 µg/cm2 [2] of 50 to 100%.

For `CCNC(=O)c1cc(NC(=O)[C@H]2[C@H](c3ccc(F)c(Cl)c3)C2(Cl)Cl)cc(Cl)c1F` (relative stereo) [F2047, trans-3-Chloro-5-(2,2-dichloro-3-(3-chloro-4-fluorophenyl)cyclopropane-1-carboxamido)-N-ethyl-2-fluorobenzamide], the pest or weed control at 50 µg/cm2 [1] was 50 to 100% and the pest or weed control at 50 µg/cm2 [2] was 50 to 100%.

`O=C(NCCCCl)c1cc(NC(=O)[C@H]2[C@H](c3ccc(F)c(Cl)c3)C2(Cl)Cl)cc(Cl)c1F` (relative stereo) [F2048, trans-3-Chloro-N-(3-chloropropyl)-5-(2,2-dichloro-3-(3-chloro-4-fluorophenyl)cyclopropane-1-carboxamido)-2-fluorobenzamide] showed a pest or weed control at 50 µg/cm2 [1] of 50 to 100% and a pest or weed control at 50 µg/cm2 [2] of 50 to 100%.

In the case of `O=C(NCC(F)(F)F)c1cc(NC(=O)[C@H]2[C@H](c3ccc(F)c(Cl)c3)C2(Cl)Cl)cc(F)c1F` (relative stereo) [F2049, trans-5-(2,2-Dichloro-3-(3-chloro-4-fluorophenyl)cyclopropane-1-carboxamido)-2,3-difluoro-N-(2,2,2-trifluoroethyl)benzamide], the pest or weed control at 50 µg/cm2 [1] is reported as 50 to 100% and the pest or weed control at 50 µg/cm2 [2] is reported as 50 to 100%.

`O=C(NCC(F)(F)C(F)(F)F)c1cc(NC(=O)[C@H]2[C@H](c3ccc(F)c(Cl)c3)C2(Cl)Cl)cc(F)c1F` (relative stereo) [F2050, trans-5-(2,2-Dichloro-3-(3-chloro-4-fluorophenyl)cyclopropane-1-carboxamido)-2,3-difluoro-N-(2,2,3,3,3-pentafluoropropyl)benzamide] showed a pest or weed control at 50 µg/cm2 [1] of 50 to 100% and a pest or weed control at 50 µg/cm2 [2] of 50 to 100%.

`CCNC(=O)c1cc(NC(=O)[C@H]2[C@H](c3ccc(F)c(Cl)c3)C2(Cl)Cl)cc(F)c1F` (relative stereo) [F2051, trans-5-(2,2-Dichloro-3-(3-chloro-4-fluorophenyl)cyclopropane-1-carboxamido)-N-ethyl-2,3-difluorobenzamide] showed a pest or weed control at 50 µg/cm2 [1] of 50 to 100% and a pest or weed control at 50 µg/cm2 [2] of 50 to 100%.

Compound `O=C(NCCCCl)c1cc(NC(=O)[C@H]2[C@H](c3ccc(F)c(Cl)c3)C2(Cl)Cl)cc(F)c1F` (relative stereo) [F2052, trans-N-(3-Chloropropyl)-5-(2,2-dichloro-3-(3-chloro-4-fluorophenyl)cyclopropane-1-carboxamido)-2,3-difluorobenzamide] has a pest or weed control at 50 µg/cm2 [1] of 50 to 100% and a pest or weed control at 50 µg/cm2 [2] of 50 to 100%.

`CCNC(=O)c1cc(NC(=O)[C@H]2[C@H](c3ccc(F)c(Cl)c3)C2(Cl)Cl)cc(C(F)(F)F)c1Cl` (relative stereo) [F2053, trans-2-Chloro-5-(2,2-dichloro-3-(3-chloro-4-fluorophenyl)cyclopropane-1-carboxamido)-N-ethyl-3-(trifluoromethyl)benzamide] gave a pest or weed control at 50 µg/cm2 [1] of 50 to 100% and a pest or weed control at 50 µg/cm2 [2] of 50 to 100%.

`COc1c(Cl)cc(NC(=O)[C@H]2[C@H](c3ccc(F)c(Cl)c3)C2(Cl)Cl)cc1C(=O)NCC(F)(F)F` (relative stereo) [F2061, trans-3-Chloro-5-(2,2-dichloro-3-(3-chloro-4-fluorophenyl)cyclopropane-1-carboxamido)-2-methoxy-N-(2,2,2-trifluoroethyl)benzamide] gave a pest or weed control at 50 µg/cm2 [1] of 50 to 100% and a pest or weed control at 50 µg/cm2 [2] of 50 to 100%.

Compound `COc1c(Cl)cc(NC(=O)[C@H]2[C@H](c3ccc(F)c(Cl)c3)C2(Cl)Cl)cc1C(=O)NCC(F)(F)C(F)(F)F` (relative stereo) [F2062, trans-3-Chloro-5-(2,2-dichloro-3-(3-chloro-4-fluorophenyl)cyclopropane-1-carboxamido)-2-methoxy-N-(2,2,3,3,3-pentafluoropropyl)benzamide] has a pest or weed control at 50 µg/cm2 [1] of 50 to 100% and a pest or weed control at 50 µg/cm2 [2] of 50 to 100%.

`O=C(NNc1ccc(Cl)c(C(F)(F)F)c1)c1cc(NC(=O)[C@H]2[C@H](c3cc(Cl)cc(Cl)c3)C2(Cl)Cl)ccc1Cl` (relative stereo) [F2501, trans-2,2-dichloro-N-(4-chloro-3-(2-(4-chloro-3-(trifluoromethyl)phenyl)hydrazine-1-carbonyl)phenyl)-3-(3,5-dichlorophenyl)cyclopropane-1-carboxamide] was tested, and the pest or weed control at 50 µg/cm2 [1] was 50 to 100% and the pest or weed control at 50 µg/cm2 [2] was 50 to 100%.

Compound `CN(NC(=O)c1cc(NC(=O)[C@H]2[C@H](c3cc(Cl)cc(Cl)c3)C2(Cl)Cl)ccc1Cl)c1ccccn1` (relative stereo) [F2503, trans-2,2-Dichloro-N-(4-chloro-3-(2-methyl-2-(pyridin-2-yl)hydrazine-1-carbonyl)phenyl)-3-(3,5-dichlorophenyl)cyclopropane-1-carboxamide] has a pest or weed control at 50 µg/cm2 [1] of 50 to 100% and a pest or weed control at 50 µg/cm2 [2] of 50 to 100%.

Compound `O=C(CC(F)(F)F)NNC(=O)c1cc(NC(=O)[C@H]2[C@H](c3cc(Cl)cc(Cl)c3)C2(Cl)Cl)ccc1Cl` (relative stereo) [F2516, trans-2,2-Dichloro-N-(4-chloro-3-(2-(3,3,3-trifluoropropanoyl)hydrazine-1-carbonyl)phenyl)-3-(3,5-dichlorophenyl)cyclopropane-1-carboxamide] has a pest or weed control at 50 µg/cm2 [1] of 50 to 100% and a pest or weed control at 50 µg/cm2 [2] of 50 to 100%.

For `O=C(NNC(=O)C1CC1(F)F)c1cc(NC(=O)[C@H]2[C@H](c3cc(Cl)cc(Cl)c3)C2(Cl)Cl)ccc1Cl` (relative stereo) [F2517, trans-2,2-Dichloro-N-(4-chloro-3-(2-(2,2-difluorocyclopropane-1-carbonyl)hydrazine-1-carbonyl)phenyl)-3-(3,5-dichlorophenyl)cyclopropane-1-carboxamide], the pest or weed control at 50 µg/cm2 [1] was 50 to 100% and the pest or weed control at 50 µg/cm2 [2] was 50 to 100%.

`CN(NC(=O)c1cc(NC(=O)[C@H]2[C@H](c3cc(Cl)cc(Cl)c3)C2(Cl)Cl)ccc1Cl)C(=O)C(F)(F)F` (relative stereo) [F2523, trans-2,2-Dichloro-N-(4-chloro-3-(2-methyl-2-(2,2,2-trifluoroacetyl)hydrazine-1-carbonyl)phenyl)-3-(3,5-dichlorophenyl)cyclopropane-1-carboxamide] gave a pest or weed control at 50 µg/cm2 [1] of 50 to 100% and a pest or weed control at 50 µg/cm2 [2] of 50 to 100%.

`CN(C)CC(=O)N(C)NC(=O)c1cc(NC(=O)[C@H]2[C@H](c3cc(Cl)cc(Cl)c3)C2(Cl)Cl)ccc1Cl` (relative stereo) [F2526, trans-2,2-Dichloro-N-(4-chloro-3-(2-(dimethylglycyl)-2-methylhydrazine-1-carbonyl)phenyl)-3-(3,5-dichlorophenyl)cyclopropane-1-carboxamide] was tested, and the pest or weed control at 50 µg/cm2 [1] was 50 to 100% and the pest or weed control at 50 µg/cm2 [2] was 50 to 100%.

`CN(NC(=O)c1cc(NC(=O)[C@H]2[C@H](c3cc(Cl)cc(Cl)c3)C2(Cl)Cl)ccc1Cl)C(=O)c1ccccc1` (relative stereo) [F2527, trans-N-(3-(2-Benzoyl-2-methylhydrazine-1-carbonyl)-4-chlorophenyl)-2,2-dichloro-3-(3,5-dichlorophenyl)cyclopropane-1-carboxamide] showed a pest or weed control at 50 µg/cm2 [1] of 50 to 100% and a pest or weed control at 50 µg/cm2 [2] of 50 to 100%.

Work on `O=C(CC1CC1)NNC(=O)c1cc(NC(=O)[C@H]2[C@H](c3cc(Cl)cc(Cl)c3)C2(Cl)Cl)ccc1Cl` (relative stereo) [F2528, trans-2,2-Dichloro-N-(4-chloro-3-(2-(2-cyclopropylacetyl)hydrazine-1-carbonyl)phenyl)-3-(3,5-dichlorophenyl)cyclopropane-1-carboxamide] yielded a pest or weed control at 50 µg/cm2 [1] of 50 to 100% and a pest or weed control at 50 µg/cm2 [2] of 50 to 100%.

`COCC(=O)NNC(=O)c1cc(NC(=O)[C@H]2[C@H](c3cc(Cl)cc(Cl)c3)C2(Cl)Cl)ccc1Cl` (relative stereo) [F2529, trans-2,2-Dichloro-N-(4-chloro-3-(2-(2-methoxyacetyl)hydrazine-1-carbonyl)phenyl)-3-(3,5-dichlorophenyl)cyclopropane-1-carboxamide] gave a pest or weed control at 50 µg/cm2 [1] of 50 to 100% and a pest or weed control at 50 µg/cm2 [2] of 50 to 100%.

In the case of `O=C(NNC(=O)C(C(F)(F)F)C(F)(F)F)c1cc(NC(=O)[C@H]2[C@H](c3cc(Cl)cc(Cl)c3)C2(Cl)Cl)ccc1Cl` (relative stereo) [F2532, trans-2,2-Dichloro-N-(4-chloro-3-(2-(3,3,3-trifluoro-2-(trifluoromethyl)propanoyl)hydrazine-1-carbonyl)phenyl)-3-(3,5-dichlorophenyl)cyclopropane-1-carboxamide], the pest or weed control at 50 µg/cm2 [1] is reported as 50 to 100% and the pest or weed control at 50 µg/cm2 [2] is reported as 50 to 100%.

From patent publication US20250228239A1, “MOLECULES HAVING PESTICIDAL UTILITY, AND INTERMEDIATES, COMPOSITIONS, AND PROCESSES, RELATED THERETO” (priority 2024, published 2025)
